The IC50 is the concentration needed to halve the response being measured.

What all share (type): cell-based
The target in experiment [1] is Ba/F3 (EGFR L858R/T790M/C797S) (Homo sapiens, UniProt P00533, T790M/C797S/L858R, cells depend on it). The experiment in a line: Cell proliferation inhibitory activity assay, Ba/F3 EGFR L858R/T790M/C797S. Particulars: cell proliferation inhibition, 72 hours, luminescence; read-out: Ba/F3 cells overexpressing different EGFR mutations IC50 (nM) L858R/T790M/C797S. As to the method: (§1) Suspension cells Ba/F3 (EGFR. Dell9/T790M/C797S), Ba/F3 (EGFR L858R/T790M/C797S), Ba/F3 (EGFR Del19/C797S), and Ba/F3 (EGFR L858R/C797S) overexpressing different EGFR mutations were cultured in PRMI 1640 containing 10% FBS and 1% PS, and adherent cells A431 carrying EGFR WT were cultured in DMEM containing 10% FBS and 1% PS. The experimental steps for compound activity detection are as follows: • (1) Take adherent cells in the logarithmic growth phase, digest them with trypsin count them, and then inoculate them into a 96-well plate at a certain density. Incubate them overnight at 37° C. and 5% CO2 to allow them to adhere.
(§2) Y=minimum+([…])/(1+10^((Log IC50−X)*slope)); • X: logarithm of compound concentration; Y: cell survival inhibition rate.

For experiment [2], the target named is Ba/F3 cells overexpressing EGFR Del19/T790M/C797S (Homo sapiens, UniProt P00533, T790M/C797S, cells depend on it, form not given). Nature of the experiment: Cell proliferation inhibitory activity assay, Ba/F3 EGFR Del19/T790M/C797S. Conditions: cell proliferation inhibition, 72 hours, luminescence; read-out: Ba/F3 cells overexpressing different EGFR mutations IC50 (nM) Del19/T790M/C797S. As to the method:
as §1, §2

Experiment [3] deals with A431 cell carrying EGFR WT. The experiment in a line: Cell proliferation inhibitory activity assay, A431. Particulars: Homo sapiens, A-431; cell proliferation inhibition, 72 hours, luminescence. The procedure:
as §1, §2

The target in experiment [4] is Ba/F3 (EGFR Del19/C797S) (Homo sapiens, UniProt P00533, C797S, cells depend on it, form not given). The experiment in a line: Cell proliferation inhibitory activity assay, Ba/F3 EGFR Del19/C797S. Particulars: cell proliferation inhibition, 72 hours, luminescence; read-out: Ba/F3 cells overexpressing different EGFR mutations IC50 (nM) Del19/C797S. As to the method:
as §1, §2

Experiment [5] has as its target Ba/F3 (EGFR L858R/C797S) (Homo sapiens, UniProt P00533, C797S/L858R, cells depend on it). The experiment in a line: Cell proliferation inhibitory activity assay, Ba/F3 EGFR L858R/C797S. Conditions: cell proliferation inhibition, 72 hours, luminescence; read-out: Ba/F3 cells overexpressing different EGFR mutations IC50 (nM) L858R/C797S. As to the method:
as §1, §2

Sequence of Ba/F3 (EGFR L858R/T790M/C797S) (P00533 whole entry T790M/C797S/L858R): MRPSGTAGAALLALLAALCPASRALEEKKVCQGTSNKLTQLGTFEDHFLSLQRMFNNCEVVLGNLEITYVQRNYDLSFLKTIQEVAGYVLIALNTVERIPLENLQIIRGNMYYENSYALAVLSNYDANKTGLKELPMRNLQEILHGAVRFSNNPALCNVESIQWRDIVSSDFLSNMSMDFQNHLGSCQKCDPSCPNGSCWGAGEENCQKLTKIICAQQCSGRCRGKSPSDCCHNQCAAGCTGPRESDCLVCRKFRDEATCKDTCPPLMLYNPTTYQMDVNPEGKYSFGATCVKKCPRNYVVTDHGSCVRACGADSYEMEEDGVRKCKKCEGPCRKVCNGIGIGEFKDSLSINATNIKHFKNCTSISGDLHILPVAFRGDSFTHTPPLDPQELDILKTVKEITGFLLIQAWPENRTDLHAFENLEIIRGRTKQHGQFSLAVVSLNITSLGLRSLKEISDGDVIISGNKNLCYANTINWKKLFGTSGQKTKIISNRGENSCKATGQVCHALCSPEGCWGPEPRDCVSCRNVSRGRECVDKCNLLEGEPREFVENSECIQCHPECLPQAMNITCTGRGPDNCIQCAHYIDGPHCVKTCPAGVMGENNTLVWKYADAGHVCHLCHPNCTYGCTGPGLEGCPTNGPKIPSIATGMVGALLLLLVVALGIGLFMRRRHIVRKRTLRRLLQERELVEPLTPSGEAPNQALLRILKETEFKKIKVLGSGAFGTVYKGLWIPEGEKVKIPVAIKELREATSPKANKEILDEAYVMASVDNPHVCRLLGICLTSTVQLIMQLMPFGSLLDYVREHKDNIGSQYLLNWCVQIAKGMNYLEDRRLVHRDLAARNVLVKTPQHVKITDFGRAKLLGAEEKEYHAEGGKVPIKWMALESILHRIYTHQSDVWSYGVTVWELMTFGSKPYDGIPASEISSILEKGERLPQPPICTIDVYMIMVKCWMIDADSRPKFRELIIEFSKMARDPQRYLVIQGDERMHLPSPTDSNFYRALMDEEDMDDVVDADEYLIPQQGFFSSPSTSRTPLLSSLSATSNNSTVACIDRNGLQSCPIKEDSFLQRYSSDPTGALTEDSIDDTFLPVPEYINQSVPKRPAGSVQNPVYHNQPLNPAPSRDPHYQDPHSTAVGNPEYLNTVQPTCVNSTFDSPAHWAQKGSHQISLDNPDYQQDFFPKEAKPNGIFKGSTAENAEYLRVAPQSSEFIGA
Sequence of Ba/F3 (EGFR Del19/C797S) (P00533 with tags, fused parts or gaps DEL746-750/C797S, form open): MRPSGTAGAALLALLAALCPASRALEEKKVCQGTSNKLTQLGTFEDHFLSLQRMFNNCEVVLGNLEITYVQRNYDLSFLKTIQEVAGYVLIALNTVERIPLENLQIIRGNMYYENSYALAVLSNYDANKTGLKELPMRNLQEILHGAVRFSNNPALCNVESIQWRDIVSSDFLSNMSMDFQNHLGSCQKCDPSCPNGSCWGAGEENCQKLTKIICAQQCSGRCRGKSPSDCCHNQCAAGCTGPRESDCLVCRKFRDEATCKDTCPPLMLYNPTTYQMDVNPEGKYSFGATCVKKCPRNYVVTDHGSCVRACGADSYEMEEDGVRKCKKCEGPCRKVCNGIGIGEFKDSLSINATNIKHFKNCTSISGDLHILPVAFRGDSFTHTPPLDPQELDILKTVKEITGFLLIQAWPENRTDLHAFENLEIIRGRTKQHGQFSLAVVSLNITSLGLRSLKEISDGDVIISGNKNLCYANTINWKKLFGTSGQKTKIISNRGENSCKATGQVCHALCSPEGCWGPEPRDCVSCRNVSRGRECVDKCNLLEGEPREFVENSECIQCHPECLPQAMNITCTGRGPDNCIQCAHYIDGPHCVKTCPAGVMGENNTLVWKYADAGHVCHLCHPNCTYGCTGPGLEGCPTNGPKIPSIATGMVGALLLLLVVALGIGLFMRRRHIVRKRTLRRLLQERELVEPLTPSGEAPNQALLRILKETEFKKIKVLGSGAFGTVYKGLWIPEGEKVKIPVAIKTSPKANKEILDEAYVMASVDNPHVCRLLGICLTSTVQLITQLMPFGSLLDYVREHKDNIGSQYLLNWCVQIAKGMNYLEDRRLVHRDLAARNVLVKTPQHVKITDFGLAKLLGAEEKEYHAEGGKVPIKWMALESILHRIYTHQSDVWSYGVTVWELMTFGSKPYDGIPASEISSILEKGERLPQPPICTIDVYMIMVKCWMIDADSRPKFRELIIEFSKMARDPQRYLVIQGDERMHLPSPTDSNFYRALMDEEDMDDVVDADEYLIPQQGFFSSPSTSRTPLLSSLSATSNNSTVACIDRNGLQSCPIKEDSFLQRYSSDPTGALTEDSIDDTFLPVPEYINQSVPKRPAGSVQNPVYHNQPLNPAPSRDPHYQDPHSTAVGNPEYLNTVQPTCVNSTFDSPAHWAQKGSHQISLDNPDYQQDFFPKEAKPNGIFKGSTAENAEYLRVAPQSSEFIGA
Sequence of Ba/F3 cells overexpressing EGFR Del19/T790M/C797S (P00533 with tags, fused parts or gaps DEL746-750/T790M/C797S, form open): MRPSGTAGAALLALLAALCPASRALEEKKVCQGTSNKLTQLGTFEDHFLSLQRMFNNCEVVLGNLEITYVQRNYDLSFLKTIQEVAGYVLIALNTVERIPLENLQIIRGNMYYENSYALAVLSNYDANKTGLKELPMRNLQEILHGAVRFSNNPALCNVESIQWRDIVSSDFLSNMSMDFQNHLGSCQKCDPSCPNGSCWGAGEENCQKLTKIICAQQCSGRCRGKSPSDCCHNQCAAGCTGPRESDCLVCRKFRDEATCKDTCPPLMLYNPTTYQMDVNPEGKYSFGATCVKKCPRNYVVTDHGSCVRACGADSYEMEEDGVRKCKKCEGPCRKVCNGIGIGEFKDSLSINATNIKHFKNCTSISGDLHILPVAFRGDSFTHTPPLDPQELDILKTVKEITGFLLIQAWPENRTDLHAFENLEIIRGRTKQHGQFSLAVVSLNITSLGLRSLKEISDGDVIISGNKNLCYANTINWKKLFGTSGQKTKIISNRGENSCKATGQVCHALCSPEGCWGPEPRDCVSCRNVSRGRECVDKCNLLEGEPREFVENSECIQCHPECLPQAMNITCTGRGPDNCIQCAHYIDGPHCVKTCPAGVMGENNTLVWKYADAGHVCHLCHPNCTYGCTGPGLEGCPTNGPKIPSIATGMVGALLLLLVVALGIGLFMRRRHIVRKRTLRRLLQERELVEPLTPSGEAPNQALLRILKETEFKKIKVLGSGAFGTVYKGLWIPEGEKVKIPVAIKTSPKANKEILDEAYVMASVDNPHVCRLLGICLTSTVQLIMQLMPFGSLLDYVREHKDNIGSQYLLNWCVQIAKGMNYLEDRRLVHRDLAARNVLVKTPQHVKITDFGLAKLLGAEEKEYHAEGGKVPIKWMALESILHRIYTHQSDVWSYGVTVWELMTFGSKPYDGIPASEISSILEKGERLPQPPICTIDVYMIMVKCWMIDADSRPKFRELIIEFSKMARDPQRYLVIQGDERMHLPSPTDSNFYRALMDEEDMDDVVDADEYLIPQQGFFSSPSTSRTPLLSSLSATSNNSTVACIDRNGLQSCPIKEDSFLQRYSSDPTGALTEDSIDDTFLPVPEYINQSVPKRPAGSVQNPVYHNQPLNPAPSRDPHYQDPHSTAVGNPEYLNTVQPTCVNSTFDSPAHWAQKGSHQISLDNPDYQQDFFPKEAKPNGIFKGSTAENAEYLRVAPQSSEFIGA
Sequence of Ba/F3 (EGFR L858R/C797S) (P00533 whole entry C797S/L858R): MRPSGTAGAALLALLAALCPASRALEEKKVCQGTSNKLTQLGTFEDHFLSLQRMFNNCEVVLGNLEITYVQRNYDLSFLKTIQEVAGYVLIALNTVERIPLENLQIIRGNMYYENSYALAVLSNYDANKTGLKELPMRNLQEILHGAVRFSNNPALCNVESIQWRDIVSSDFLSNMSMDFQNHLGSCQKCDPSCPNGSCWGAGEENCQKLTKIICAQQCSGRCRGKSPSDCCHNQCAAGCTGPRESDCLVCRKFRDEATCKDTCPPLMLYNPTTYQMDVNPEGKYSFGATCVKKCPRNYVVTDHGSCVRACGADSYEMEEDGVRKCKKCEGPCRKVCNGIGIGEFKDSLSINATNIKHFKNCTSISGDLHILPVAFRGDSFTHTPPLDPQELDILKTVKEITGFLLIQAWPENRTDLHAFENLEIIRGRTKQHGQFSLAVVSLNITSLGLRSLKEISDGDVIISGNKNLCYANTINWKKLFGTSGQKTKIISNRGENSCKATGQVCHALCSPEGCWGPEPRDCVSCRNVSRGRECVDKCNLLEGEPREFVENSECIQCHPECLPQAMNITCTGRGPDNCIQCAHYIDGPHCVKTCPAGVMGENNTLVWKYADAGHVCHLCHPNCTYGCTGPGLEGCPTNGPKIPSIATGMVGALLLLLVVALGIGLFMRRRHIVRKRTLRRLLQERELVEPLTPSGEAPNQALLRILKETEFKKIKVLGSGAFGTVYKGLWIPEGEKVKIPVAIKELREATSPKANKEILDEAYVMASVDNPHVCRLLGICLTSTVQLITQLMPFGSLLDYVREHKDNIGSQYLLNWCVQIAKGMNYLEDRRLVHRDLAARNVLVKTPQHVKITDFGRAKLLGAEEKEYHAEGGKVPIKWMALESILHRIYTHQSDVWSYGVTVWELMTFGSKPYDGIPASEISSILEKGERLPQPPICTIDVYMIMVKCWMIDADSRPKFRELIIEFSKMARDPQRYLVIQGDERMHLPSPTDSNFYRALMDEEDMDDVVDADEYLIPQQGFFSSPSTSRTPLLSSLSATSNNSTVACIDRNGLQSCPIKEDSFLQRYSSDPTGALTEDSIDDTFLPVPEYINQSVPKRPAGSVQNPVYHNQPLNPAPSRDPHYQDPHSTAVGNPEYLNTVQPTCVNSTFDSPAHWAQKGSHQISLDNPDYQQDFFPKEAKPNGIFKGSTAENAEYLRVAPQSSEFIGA

Take `Cc1cc2cc(n1)-c1cnccc1OCCCC(C)(C)Cn1c(nc3ccc(N4CCC5(CCN(C)CC5)CC4)cc31)NC2=O` [Example 7, 2^6,9,9-trimethyl-5^6-(9-methyl-3,9-diazaspiro[5.5]undecan-3-yl)-5^1H-11-oxa-4-aza-5(2,1)-benzo[d]imidazola-1(3,4),2(2,4)-dipyridinacycloundecaphan-3-one]: the GI50 was determined as 3.7 nM in experiment [1], 1.6 nM in experiment [2], 4.5 nM in experiment [4] and 11 nM in experiment [5]. It took 226 nM to reach half-maximal inhibition in experiment [3] (IC50).
Take `Cc1cc2cc(n1)-c1cnc(F)cc1OCCC[C@@H](C)Cn1c(nc3ccc(N4CCC5(CCNCC5)CC4)cc31)NC2=O` [Example 9, (R)-1^6-fluoro-2^6,7-dimethyl-5^6-(3,9-driazaspiro[3.5]undecan-3-yl)-5^1-11-oxa-4-aza-5(2,1)-benzo[d]imidazola-1(3,4),2(2,4)-dipyridinacycloundecaphan-3-one]: the GI50 in experiment [1] was found to be 1.1 nM; in experiment [2] it was 0.73 nM; in experiment [4], 0.77 nM; in experiment [5], 3.6 nM. Moreover, inhibition in experiment [3] was half-maximal at 425 nM (IC50).
On the same counts, the results for `Cc1cc2cc(n1)-c1cnccc1OCCC[C@@H](C)Cn1c(nc3cc(C)c(N4CCC5(CCN(C)CC5)CC4)cc31)NC2=O` [Example 11, (R)-2^6,5^3,7-trimethyl-5^6-(9-methyl-3,9-diazaspiro[5.5]undecan-3-yl)-5^1H-11-oxa-4-aza-5(2.I)-benzo[d]imidazola-1(3,4),2(2,4)-dipyridinacycloundecaphan-3-one] are 3.4 nM, 2.2 nM, 0.15 nM, 1 nM and 493 nM.
On the same counts, the results for `Cc1cc2cc(n1)-c1cnccc1OCCCCCn1c(nc3cc(F)c(N4CCC5(CCN(C)CC5)CC4)cc31)NC2=O` [Example 14, 5^5-fluoro-2^6-methyl-5^6-(9-methyl-3,9-diazaspiro[5.5]undecan-3-yl)-5^1H-11-oxa-4-aza-5(2,1)-benzo[d]imidazola-1(3,4),2(2,4)-dipyridinacycloundecaphan-3-one] are 1.5 nM, 0.37 nM, 0.18 nM, 1.8 nM and 805 nM.
As to `COCCCN1CCC2(CC1)CCN(c1ccc3nc4n(c3c1)C[C@H](C)CCCOc1cc(F)ncc1-c1cc(cc(C)n1)C(=O)N4)CC2` [Example 17, 1^6-fluoro-5^6-(9-(3-methoxypropyl)-3,9-diazaspiro[5.5]undecan-3-yl)-2^6-methyl-5^1H-11-oxa-4-aza-5(2,1)-benzo[d]imidazola-1(3,4),2(2,4)-dipyridinacycloundecaphan-3-one], the GI50 in experiment [1] is 4.7 nM; in experiment [2], 1.2 nM; in experiment [4] it was 5 nM; in experiment [5] it was 18 nM. This molecule also displayed an IC50 in experiment [3] of 1470 nM.
For `Cc1cc2cc(n1)-c1cnccc1OCCCCCn1c(nc3ccc(N4CCC5(CCN(CCC(N)=O)CC5)CC4)cc31)NC2=O` [Example 18, 3-(9-(2^6-methyl-3-oxo-5^1H-11-oxa-4-aza-5(2,1)-benzo[d]imidazola-1(3,4),2(2,4)-dipyridinacycloundecaphane-5^6-yl)-3,9-diazaspiro[5.5]undecan-3-yl)propanamide], the GI50 in experiment [1] stood at 2.1 nM; in experiment [2], 0.77 nM; in experiment [4] it was 0.5 nM; in experiment [5], 3.9 nM. The same molecule registered an IC50 in experiment [3] of 631 nM.
On to `Cc1cc2cc(n1)-c1cnccc1OCCC[C@@H](C)Cn1c(nc3ccc(N4CCC5(CC4)CCN(C4CC4)CC5)cc31)NC2=O` [Example 45, (R)-5^6-(9-cyclopropyl-3,9-diazaspiro[5.5]undecan-3-yl)-2^6,7-dimethyl-5^1H-11-oxa-4-aza-5(2,1)-benzo [d]imidazola-1(3,4),2(2,4)-dipyridinacyclo-undecaphan-3-one], for which the GI50 in experiment [1] was 3.7 nM; in experiment [2] it was 1.6 nM; in experiment [4] it was 0.27 nM; in experiment [5] it was 2.1 nM. The IC50 in experiment [3] was 701 nM.
With `Cc1cc2cc(n1)-c1cnccc1OCCCCCn1c(nc3cc(F)c(N4CCC5(CCN(CCF)CC5)CC4)cc31)NC2=O` [Example 61, 5^5-fluoro-5^6-(9-(2-fluoroethyl)-3,9-diazaspiro [5.5]undecan-3-yl)-2^6-methyl-5^1H-11-oxa-4-aza-5(2,1)-benzo [d]imidazola-1(3,4),2(2,4)-dipyridinacyclo-undecaphan-3-one], the GI50 in experiment [1] came to 1.8 nM; in experiment [2], 0.91 nM; in experiment [4], 0.29 nM; in experiment [5] it was 3 nM. Half-maximal inhibition in experiment [3] (IC50) was put at 1080 nM.
Turning to `Cc1cc2cc(n1)-c1cnccc1OCCCCCn1c(nc3cc(F)c(N4CCC5(CCN(CC6COC6)CC5)CC4)cc31)NC2=O` [Example 62, 5^5-fluoro-2^6-methyl-5^6-(9-(oxetan-3-ylmethyl)-3,9-diazaspiro [5.5]undecan-3-yl)-5^1H-11-oxa-4-aza-5(2,1)-benzo[d] imidazola-1(3,4),2(2,4)-dipyridinacyclo-undecaphan-3-one], the GI50 was 3 nM in experiment [1], 0.95 nM in experiment [2], 0.57 nM in experiment [4] and 3.8 nM in experiment [5]. For the same molecule, the IC50 in experiment [3] is 772 nM.
`Cc1cc2cc(n1)-c1cnccc1OCCCCCn1c(nc3cc(F)c(N4CCC5(CC4)CCN(C4COC4)CC5)cc31)NC2=O` [Example 63, 5^5-fluoro-2^6-methyl-5^6-(9-(oxetan-3-yl)-3,9-diazaspiro[5.5]undecan-3-yl)-5^1H-11-oxa-4-aza-5(2,1)-benzo [d]imidazola-1(3,4),2(2,4)-dipyridinacyclo-undecaphan-3-one]: the GI50 in experiment [1] was found to be 1.5 nM; in experiment [2], 0.5 nM; in experiment [4], 0.67 nM; in experiment [5] it was 2 nM. The 50% inhibitory concentration (IC50) in experiment [3] came to 472 nM.
As for `Cc1cc2cc(n1)-c1cnccc1OCCCCCn1c(nc3cc(F)c(N4CCC5(CC4)CCN(C4CC4)CC5)cc31)NC2=O` [Example 65, 5^6-(9-cyclopropyl-3,9-diazasptro [5.5]undecan-3-yl)-5^5-fluoro-2^6-methyl-5^1H-11-oxa-4-aza-5(2,1)-benzo [d]imidazola-1(3,4),2(2,4)-dipyridinacyclo-undecaphan-3-one], the GI50 in experiment [1] came out at 2.3 nM; in experiment [2], 1.1 nM; in experiment [4], 0.69 nM; in experiment [5] it was 4.6 nM. The molecule also came in with an IC50 in experiment [3] of 1250 nM.
On the same counts, the results for `COCCN1CCC2(CC1)CCN(c1ccc3nc4n(c3c1)CCCCCOc1ccncc1-c1cc(cc(C)n1)C(=O)N4)CC2` [Example 75, 5^6-(9-(2-methoxy-ethyl)-3,9-diazaspiro[5.5]undecan-3-yl)-2^6-methyl-5^1H-11-oxa-4-aza-5(2,1)-benzo[d] imidazola-1(3,4), 2(2,4)-dipyridinacyclo-undecaphan-3-one] are 0.08 nM, 0.07 nM, 0.11 nM, 0.07 nM and 646 nM.
Taken in the same sequence, the figures for `Cc1cc2cc(n1)-c1cnccc1OCCC[C@@H](C)Cn1c(nc3ccc(N4CCC5(CC4)CCN(C4COC4(C)C)CC5)cc31)NC2=O` (stereo partly drawn) [Example 82, (7R)-5^6-(9-(2,2-dimethyloxetan-3-yl)-3,9-diazaspiro[5.5]undecan-3-yl)-2^6,7-dimethyl-5^1H-11-oxa-4-aza-5(2,1)-benzo [d]imidazola-1(3,4),2(2,4)-dipyridinacyclo-undecaphan-3-one] were 12 nM, 4.7 nM, 2.9 nM, 17 nM and 770 nM.
For the molecule `Cc1cc2cc(n1)-c1cnccc1OCCC[C@@H](C)Cn1c(nc3ccc(N4CCC5(CC4)CCN(C4COC4C)CC5)cc31)NC2=O` (stereo partly drawn) [Example 83, (7R)-2^6,7-dimethyl-5^6-(9-(2-methyloxetan-3-yl)-3,9-diazaspiro [5.5]undecan-3-yl)-5^1H-11-oxa-4-aza-5(2,1)-benzo[d] imidazola-1(3,4),2(2,4)-dipyridinacyclo-undecaphan-3-one], the GI50 is 2 nM in experiment [1], 1.3 nM in experiment [2], 0.27 nM in experiment [4] and 2 nM in experiment [5]. Besides, the IC50 in experiment [3] is 294 nM.

Source of the values: patent US20250223300A1, “MACROCYCLIC COMPOUND AND PHARMACEUTICAL COMPOSITION AND USE THEREOF” (BETTA PHARMACEUTICALS CO., LTD, priority 2022, published 2025).
